In patent US10987360B2, “Hepatitis B core protein modulators” (Assembly Biosciences, Inc., priority 2016, dated 2021):
Where two headings read alike, the source gives them in different places.

Legend:
[1] = tested on: HBV viral load in AD38 cells; assay: Viral load production in AD38 cells, quantitative PCR of the core sequence in supernatant; type: cell-based; conditions: Hepatitis B virus, 144 h, 6 days incubation
Protocol: (§1) Assay Measuring Activity of Compounds on Viral Production in and on Viability of AD38 Cells
(§2) AD38 cells grown in a 175 cm flask with “Growth Medium” (DMEM/F12 (1:1) (cat #SH30023.01, Hyclone, 1×Pen/step (cat #: 30-002-CL, Mediatech, Inc), 10% FBS (cat #: 101, Tissue Culture Biologics), 250 μg/mL G418 (cat #: 30-234-CR, Mediatech, Inc), 1 μg/mL Tetracycline (cat #: T3325, Teknova)) were detached with 0.25% trypsin. Tetracycline-free “treatment medium” (15 mL DMEM/F12 (1:1) (cat #SH30023.01, Hyclone, 1×Pen/step (cat #: 30-002-CL, Mediatech, Inc), with 2% FBS, Tet-system approved (cat #: 631106, Clontech) were then added to mix and spun at 1300 rpm for 5 min. Pelleted cells were then re-suspended/washed with 50 mL of 1×PBS 2 times and 10 mL Treatment Medium one time. AD38 cells were then re-suspended with 10 mL of Treatment Medium and counted. Wells of a collagen coated 96-well NUNC microtiter plate were seeded at 50,000/well in 180 μL of Treatment Medium, and 20 μL of in treatment media with either 10% DMSO (Control) or a 10× solution of compound in 10% DMSO was added. Plates were incubated for 6 days at 37° C.
Viral load production was assayed by quantitative PCR of the core sequence. Briefly, 5 μL of clarified supernatant was added to a PCR reaction mixture that contained forward primers HBV-f 5′-CTGTGCCTTGGGTGGCTTT-3′, Reverse primers HBV-r 5′-[…]-3′ and Fluorescent TaqMan™ Probes HBV-probe 5′-FAM/AGCTCCAAA/ZEN/[…]/3IABkFQ-3′ in Quanta Biosciences PerfeCTa® qPCR Toughmix®, and was subsequently on an Applied Biosystems VIIA7 in a final volume of 20 μL. The PCR mixture was incubated at 45° C. for 5 minutes, then 95° C. for 10 min, followed by 40 cycles of 10 seconds at 95° C. and 20 seconds at 60° C. Viral load was quantitated against known standards by using ViiA™ 7 Software. Viral load in the supernatant from wells with treated cells were compared against viral load in supernatant from DMSO control wells (≥3 per plate).

AD38 cells = assay: Viability of AD38 cells, Promega CellTiter-Glo; type: cell-based; conditions: 6 days incubation, controls being 100%; for AD38 Viability Normalized Result (CPAM/DMSO %) at 10 μM: Table 6, compounds of Group 4
Protocol: as §1, §2
At the end of compound treatment period cell viability was assessed using a Promega CellTiter-Glo protocol. All supernatant was removed the previously treated 96-well microtiter plate, and 50 μL Tetracycline-free treatment medium (DMEM/F12 (1:1), 1×Pen/step (cat #: 30-002-CL, Mediatech, Inc), with 2% FBS, Tet-system approved (cat #: 631106, Clontech), and 1% DMSO was added back to each well. Another 50 μL of CellTiter-Glo reagent solution (Promega, G7573) was then added at room temperature and the contents mixed for 2 minutes on an orbital shaker to induce cell lysis. This was followed by incubation at room temperature for 10 minutes to stabilize the luminescent signal. The luminescence was recorded for 0.2 seconds per well on a Tecan multimode platereader (Infinite M1000 pro). The luminescent signal from each well was normalized against that of untreated (DMSO) control wells. All results in Tables 3-6 were reported with percent viability (with controls being 100%).

[2] = Table 4, compounds of Group 2, read-out: AD38 Viral Load (%) (VL with cmpd/VL in DMSO control) at 10 μM
[3] = Table 6, compounds of Group 4, read-out: AD38 Viral Load (CpAM/DMSO %) at 10 μM
[4] = Table 3, compounds of Group 1, read-out: AD38 Viral Load (%) (VL with cmpd/VL in DMSO control) at 10 μM

SMILES	activity at 10 µM [1, 2] [%]	AD38 Viability Normalized Result (cmpd/DMSO %) at 10 μM (AD38 cells; Table 4, compounds of Group 2) [%]	also measured
Cc1ncc(CNC(=O)c2ccc3c(c2)NC(=O)c2ccncc2S3)s1 [Compound 576]	11.7	98	–
Cc1[nH]c2cc(C(=O)NCc3cnc(C(F)(F)F)s3)ccc2c1C1CCCCC1 [Compound C20-01, 3-Cyclohexyl-2-methyl-N-((2-(trifluoromethyl)thiazol-5-yl)methyl)-1H-indole-6-carboxamide]	–	–	activity at 10 µM [1, 3]: 45.9%; AD38 Viability Normalized Result (CPAM/DMSO %) at 10 μM (AD38 cells): 47%
N#Cc1ccc(-c2ncc(CNC(=O)c3ccc4c(CC5CCOCC5)c[nH]c4c3)s2)c(F)c1 [Compound C18-02, N-((2-(4-cyano-2-fluorophenyl)thiazol-5-yl)methyl)-3-((tetrahydro-2H-pyran-4-yl)methyl)-1H-indole-6-carboxamide]	–	–	activity at 10 µM [1, 3]: 62.9%; AD38 Viability Normalized Result (CPAM/DMSO %) at 10 μM (AD38 cells): 106%
CC1=C(C)S(=O)(=O)c2ccc(C(=O)NCc3cnc(-c4ccc(OCCCN(C)C)cc4)s3)cc2NC1=O [Compound C10-05]	11.3	90	–
CC1=C(C)S(=O)(=O)c2ccc(C(=O)NCc3cnc(-n4cccn4)s3)cc2NC1=O [Compound C10-04]	1.8	92	–
CC1=C(C)S(=O)(=O)c2ccc(C(=O)NCc3cnc(-c4ccc(C#N)cc4F)s3)cc2NC1=O [Compound C10-02]	4	95	–
O=C(NCc1cnc(-n2cccn2)s1)c1ccc2c(c1)NC(=O)C1CCCCN1S2(=O)=O (centres unmarked) [Compound C25-04]	5.4	98	–
Cc1c(C(=O)NCc2cnc(-n3cccn3)s2)ccc2c1NC(=O)c1ccncc1S2(=O)=O [Compound C22-02]	0.9	85	–
Cc1c(C(=O)NCc2cnc(-c3ccc(C#N)cc3F)s2)ccc2c1NC(=O)c1ccncc1S2(=O)=O [Compound C22-03]	0.5	90	–
CN(C)CCCOc1ccc(-c2ncc(CNC(=O)c3ccc4c(c3)NC(=O)c3ccncc3S4(=O)=O)s2)cc1 [Compound C46-01]	8.5	101	–
Cc1c(C(=O)NCc2cnn(-c3nccs3)c2)ccc2c1NC(=O)c1ccccc1S2(=O)=O [Compound 1153, 9-methyl-11-oxo-N-((1-(thiazol-2-yl)-1H-pyrazol-4-yl)methyl)-10,11-dihydrodibenzo[b,f][1,4]thiazepine-8-carboxamide 5,5-dioxide]	–	–	activity at 10 µM ([1]; Table 5, compounds of Group 3, read-out: AD38 Viral Load (%) (VL with cmpd/VL in DMSO control) at 10 μM): 2.1%; AD38 Viability Normalized Result (cmpd/DMSO %) at 10 μM (AD38 cells; Table 5, compounds of Group 3): 92%
O=C1NC2=C(CCN(C(=O)NCc3cnc(-n4cccn4)s3)C2)S(=O)(=O)c2ccccc21 [Compound C43-01, N-((2-(1H-pyrazol-1-yl)thiazol-5-yl)methyl)-10-oxo-3,4,10,11-tetrahydrobenzo[f]pyrido[4,3-b][1,4]thiazepine-2(1H)-carboxamide 5,5-dioxide]	64.4	97	–
Cc1c(C(=O)NCc2cnc(-c3ccc(OCCCN(C)C)cc3)s2)ccc2c1NC(=O)c1ccncc1S2(=O)=O [Compound C22-01]	7.1	92	–
N#Cc1ccc(-c2ncc(CNC(=O)c3ccc4cc[nH]c4c3)s2)c(F)c1 [Compound C13-02, N-((2-(4-cyano-2-fluorophenyl)thiazol-5-yl)methyl)-1H-indole-6-carboxamide]	–	–	activity at 10 µM [1, 3]: 16.1%; AD38 Viability Normalized Result (CPAM/DMSO %) at 10 μM (AD38 cells): 105%
N#Cc1ccc(-c2ncc(CNC(=O)c3ccc4c(c3)NC(=O)[C@H]3CCCCN3S4(=O)=O)s2)c(F)c1 (single isomer, unassigned) [C25-02-Isomer II]	0.6	111	–
COC1(OC)CCC(c2ncc(CNC(=O)c3ccc4c(c3)NC(=O)c3ccccc3S4(=O)=O)s2)C1 (centres unmarked) [Compound 980-B, N-((2-(3,3-dimethoxycyclopentyl)thiazol-5-yl)methyl)-11-oxo-10,11-dihydrodibenzo[b,f][1,4]thiazepine-8-carboxamide 5,5-dioxide]	–	–	activity at 10 µM [1, 4]: 0.9%; AD38 Viability Normalized Result (cmpd/DMSO %) at 10 μM (AD38 cells; Table 3, compounds of Group 1): 93%
N#Cc1ccc(-c2ncc(CNC(=O)c3ccc4c(c3)NC(=O)c3ccncc3S4(=O)=O)s2)c(F)c1 [Compound 1021]	0.3	96	–
O=C1CC2CCCCN2c2ccc(C(=O)NCc3cnc(C(F)(F)F)s3)cc2N1 (centres unmarked) [Compound C21-01]	45.9	39	–
C[C@H](N)C(=O)N1CCC(c2ncc(CNC(=O)c3ccc4c(c3)NC(=O)c3ccccc3S4(=O)=O)s2)CC1.Cl [Compound 1034, N-((2-(1-(L-alanyl)piperidin-4-yl)thiazol-5-yl)methyl)-11-oxo-10,11-dihydrodibenzo[b,f][1,4]thiazepine-8-carboxamide 5,5-dioxide hydrochloride]	–	–	activity at 10 µM [1, 4]: 67.7%; AD38 Viability Normalized Result (cmpd/DMSO %) at 10 μM (AD38 cells; Table 3, compounds of Group 1): 106%
CC1=C(C)C(=O)Nc2cc(C(=O)NCc3cnc(-c4ccc(C#N)cc4F)s3)ccc2O1 [Compound C1-02]	20.4	103	–
N#Cc1ccc(-c2ncc(CNC(=O)c3ccc4c(c3)NC(=O)CC3CCCCN43)s2)c(F)c1 (centres unmarked) [Compound C21-02]	48.9	15	–
O=C(NCc1cnc(-c2ccccc2)s1)c1ccc2c(c1)NC(=O)c1ccncc1S2 [Compound 578]	3	100	–
